Assay results as given in paper PMC9307946, “A peptoid-based inhibitor of protein arginine methyltransferase 1 (PRMT1) induces apoptosis and autophagy in cancer cells” (The Journal of Biological Chemistry, 2022).
“And” between values parts separate entries of the source, which are not always exact repeats. Identical values can stand only once. *1 amine or outer side, *2 acyl side, *3 side chain or, on linkers, in order; H or OH if unused. Where a SMILES comes first, the peptide text is derived from it. [ ]: non-standard residue; d: D form. X2 = N=C(CCl)NCCC[C@H](N[*:1])C(=O)[*:2]; X1 = N=C(CCl)NCCCN(CC(=O)[*:2])[*:1]; Gly(N-CH2CH2OH) = O=C(O)CNCCO; Nleu = CC(C)CNCC(=O)O; Nlys = NCCCCNCC(=O)O; Sar = CNCC(=O)O

Experiments:
PRMT5 = target: T1, PRMT5 (Homo sapiens, UniProt O14744); test: MTase-Glo methyltransferase IC50 assay, PRMT5; format: biochemical; details: 200 nM PRMT5, AcH4-21 substrate 225 μM
T1 construct: made in house
T1 sequence (O14744 whole entry, species assumed): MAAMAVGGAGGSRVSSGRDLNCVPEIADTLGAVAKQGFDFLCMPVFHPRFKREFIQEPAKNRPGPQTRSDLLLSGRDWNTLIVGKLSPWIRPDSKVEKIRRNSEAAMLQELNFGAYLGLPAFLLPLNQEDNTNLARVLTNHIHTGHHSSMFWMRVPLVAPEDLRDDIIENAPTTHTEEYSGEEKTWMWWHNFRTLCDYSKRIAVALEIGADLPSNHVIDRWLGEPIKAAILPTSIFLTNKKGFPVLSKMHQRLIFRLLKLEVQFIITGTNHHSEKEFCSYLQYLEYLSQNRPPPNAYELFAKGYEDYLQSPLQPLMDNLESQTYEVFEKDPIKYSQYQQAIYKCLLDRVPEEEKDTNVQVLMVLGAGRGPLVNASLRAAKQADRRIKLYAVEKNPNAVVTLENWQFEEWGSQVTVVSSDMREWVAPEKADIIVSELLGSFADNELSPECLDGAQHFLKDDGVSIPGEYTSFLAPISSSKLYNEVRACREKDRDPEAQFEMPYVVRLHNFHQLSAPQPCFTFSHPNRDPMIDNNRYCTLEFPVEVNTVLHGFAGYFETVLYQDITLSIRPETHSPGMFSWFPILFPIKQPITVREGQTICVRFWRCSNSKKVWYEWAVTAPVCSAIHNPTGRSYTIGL
Procedure: (§1) The IC50 value for the peptoid inhibitors were measured using the MTase-Glo methyltransferase assay kit (Promega). The peptoid was incubated in assay buffer (20 mM Tris-HCl pH 8.0, 50 mM NaCl, 1 mM EDTA, 3 mM MgCl2, 0.1 mg/ml BSA, 1 mM DTT) and […] (0–1000 μM). After a preincubation of 10 min, 200 nM PRMT1 or PRMT5 was added to the assay before adding in the substrate (AcH4-21) at 225 μM. After 15 min, the reaction was quenched with 0.5% TFA (0.1% final concentration), vortexed, and incubated for an additional 10 min. To detect product formation, the MTase-Glo reagent was added for 30 min at rt, followed by addition of the MTase-Glo detection solution for an additional 30 min. Finally, the luminescence signal was measured using a BioTek Synergy two multi-mode microplate reader. The values were converted to product concentration using a standard curve of SAH (0–5 μM). The IC50 values were determined using Equation 1 and fit to a curve using GraFit 7.03.(1) FractionalactivityofPRMT=1/(1+([I]/IC50)) IC50 is the concentration of inhibitor resulting in 50% PRMT activity, and [I] is the inhibitor concentration.

PRMT1 = target: T2, PRMT1 (Homo sapiens, UniProt Q99873); test: MTase-Glo methyltransferase IC50 assay, PRMT1; format: biochemical; details: for IC50: 200 nM PRMT1, AcH4-21 substrate 225 μM
T2 construct: made in house
T2 sequence (Q99873 1-353 isoform Q99873-3, species assumed): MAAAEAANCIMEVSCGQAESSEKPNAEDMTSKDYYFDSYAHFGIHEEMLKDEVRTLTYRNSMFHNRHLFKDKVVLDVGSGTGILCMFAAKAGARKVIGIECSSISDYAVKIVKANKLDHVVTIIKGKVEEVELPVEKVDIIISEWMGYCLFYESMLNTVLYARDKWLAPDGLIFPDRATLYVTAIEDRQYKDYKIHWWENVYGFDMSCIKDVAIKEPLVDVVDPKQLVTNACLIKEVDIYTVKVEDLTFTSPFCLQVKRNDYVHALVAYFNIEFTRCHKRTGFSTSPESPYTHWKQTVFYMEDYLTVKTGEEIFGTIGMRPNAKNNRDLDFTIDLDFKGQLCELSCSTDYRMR
Procedure: as §1

Q: Which IC50 (PRMT5) does the source give for `CC(=O)N(CCO)CC(=O)NCC(=O)N(CCCNC(=N)CCl)CC(=O)NCC(=O)N(CCCCN)CC(=O)NCC(=O)NCC(=O)N(CCCCN)CC(=O)NCC(=O)N(CC(=O)NCC(=O)N(CCCCN)CC(=O)NCC(=O)NCC(=O)N(C)CC(=O)N(CCCCN)CC(N)=O)CC(C)C` [compound P2A] (Ac-[Gly(N-CH2CH2OH)]G[X1]G[Nlys]GG[Nlys]G[Nleu]G[Nlys]GG[Sar][Nlys]-NH2) here?
A: > 500 µM

Q: With `CC(C)CN(CC(=O)NCC(=O)N(CCCCN)CC(=O)NCC(=O)NCC(=O)N(C)CC(=O)N(CCCCN)CC(N)=O)C(=O)CNC(=O)CN(CCCCN)C(=O)CNC(=O)CNC(=O)CN(CCCCN)C(=O)CNC(=O)CN(CCCNC(=N)CCl)C(=O)CNC(=O)CNCCO` [compound P2] (H-[Gly(N-CH2CH2OH)]G[X1]G[Nlys]GG[Nlys]G[Nleu]G[Nlys]GG[Sar][Nlys]-NH2) as the compound, how does the IC50 (PRMT5) read?
A: > 500 µM

Q: What about the IC50 (PRMT1) of the same compound?
A: 8.73 ± 0.314 µM

Q: And the “increase in potency (PRMT1 IC50) compared to the non-warhead H4-16 peptoid” value (PRMT1; warhead peptoid vs corresponding original peptoid)?
A: 45 fold and > 45 fold

Q: Which IC50 (PRMT1) does the source give for `CC(C)C[C@H](NC(=O)CNC(=O)[C@H](CCCCN)NC(=O)CNC(=O)CNC(=O)[C@H](CCCCN)NC(=O)CNC(=O)[C@H](CCCNC(=N)CCl)NC(=O)CNC(=O)[C@@H](N)CO)C(=O)NCC(=O)N[C@@H](CCCCN)C(=O)NCC(=O)NCC(=O)N[C@@H](C)C(=O)N[C@@H](CCCCN)C(N)=O` [Compound P2 Peptide] (H-SG[X2]GKGGKGLGKGGAK-NH2; N-terminus and C-terminus assumed) here?
A: 29.6 ± 5.16 µM

Q: For `CC(=O)N[C@@H](CO)C(=O)NCC(=O)N[C@@H](CCCNC(=N)CCl)C(=O)NCC(=O)N[C@@H](CCCCN)C(=O)NCC(=O)NCC(=O)N[C@@H](CCCCN)C(=O)NCC(=O)N[C@@H](CC(C)C)C(=O)NCC(=O)N[C@@H](CCCCN)C(=O)NCC(=O)NCC(=O)N[C@@H](C)C(=O)N[C@@H](CCCCN)C(N)=O` [AcH4-16 warhead peptide] (Ac-SG[X2]GKGGKGLGKGGAK-NH2; C-terminus assumed), which IC50 (PRMT1) is on record?
A: 46.9 ± 4.86 µM
